Tests used:
[1] = Metabolic stability in mouse liver microsomes assessed as compound turnover after 30 mins; format: ADME, Microsome; conditions: read-out: Drug metabolism
[2] = target: T1, Serine/threonine-protein kinase TBK1 (Homo sapiens, UniProt Q9UHD2); experiment: Inhibition of TBK1 by radiometry
T1 sequence (Q9UHD2 whole entry): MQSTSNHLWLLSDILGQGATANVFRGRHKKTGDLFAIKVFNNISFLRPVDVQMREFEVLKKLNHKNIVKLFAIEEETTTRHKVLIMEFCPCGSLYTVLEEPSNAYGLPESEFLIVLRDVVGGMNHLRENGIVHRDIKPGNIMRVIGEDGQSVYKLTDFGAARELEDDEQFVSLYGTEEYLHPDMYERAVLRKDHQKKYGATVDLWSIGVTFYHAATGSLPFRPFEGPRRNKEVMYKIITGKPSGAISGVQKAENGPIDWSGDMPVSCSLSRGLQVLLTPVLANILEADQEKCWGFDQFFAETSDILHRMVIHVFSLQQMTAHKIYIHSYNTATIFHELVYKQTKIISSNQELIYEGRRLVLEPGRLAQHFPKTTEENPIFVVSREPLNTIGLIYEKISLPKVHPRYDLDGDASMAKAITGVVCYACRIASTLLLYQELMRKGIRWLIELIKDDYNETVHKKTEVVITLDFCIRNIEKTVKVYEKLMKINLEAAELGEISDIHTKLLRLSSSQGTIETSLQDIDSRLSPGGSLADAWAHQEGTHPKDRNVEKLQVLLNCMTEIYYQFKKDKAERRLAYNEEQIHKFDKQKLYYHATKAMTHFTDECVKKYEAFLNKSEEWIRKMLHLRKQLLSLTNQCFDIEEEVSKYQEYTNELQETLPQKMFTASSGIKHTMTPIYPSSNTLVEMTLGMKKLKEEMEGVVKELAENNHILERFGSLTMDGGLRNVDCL

[3] = target: T2, Serine/threonine-protein kinase TBK1 (Mus musculus, UniProt Q9WUN2); experiment: Inhibition of TBK1-mediated RANTES release in LPS-stimulated mouse RAW264.7 cells compound incubated for 30 mins prior LPS challenge measured after 6 hrs by ELISA; format: cell-based
T2 sequence (Q9WUN2 whole entry): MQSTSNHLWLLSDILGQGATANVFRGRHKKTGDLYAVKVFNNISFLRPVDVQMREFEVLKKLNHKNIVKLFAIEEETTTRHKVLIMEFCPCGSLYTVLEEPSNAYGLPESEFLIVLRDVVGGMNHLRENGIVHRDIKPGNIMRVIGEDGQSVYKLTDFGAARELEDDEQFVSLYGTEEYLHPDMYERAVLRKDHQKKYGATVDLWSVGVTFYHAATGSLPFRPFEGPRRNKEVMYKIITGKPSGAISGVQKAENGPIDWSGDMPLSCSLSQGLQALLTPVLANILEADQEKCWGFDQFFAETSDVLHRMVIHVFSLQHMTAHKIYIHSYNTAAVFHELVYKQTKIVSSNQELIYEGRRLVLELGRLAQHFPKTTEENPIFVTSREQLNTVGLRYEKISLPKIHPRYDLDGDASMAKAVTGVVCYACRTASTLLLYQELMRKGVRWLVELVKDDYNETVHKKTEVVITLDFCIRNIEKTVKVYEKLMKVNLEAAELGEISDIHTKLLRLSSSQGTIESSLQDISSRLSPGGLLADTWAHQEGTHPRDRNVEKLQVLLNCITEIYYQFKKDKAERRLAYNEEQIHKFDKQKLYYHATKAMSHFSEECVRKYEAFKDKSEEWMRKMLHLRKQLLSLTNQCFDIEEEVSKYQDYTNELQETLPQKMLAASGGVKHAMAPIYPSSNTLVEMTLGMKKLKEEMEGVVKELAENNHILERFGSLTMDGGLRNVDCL

[4] = Metabolic stability in human liver microsomes assessed as compound turnover after 40 mins; format: ADME, Microsome; conditions: read-out: Drug metabolism
[5] = target: T3, 3-phosphoinositide-dependent protein kinase 1 (Homo sapiens, UniProt O15530); experiment: Inhibition of PDK1 by radiometry
T3 sequence (O15530 whole entry): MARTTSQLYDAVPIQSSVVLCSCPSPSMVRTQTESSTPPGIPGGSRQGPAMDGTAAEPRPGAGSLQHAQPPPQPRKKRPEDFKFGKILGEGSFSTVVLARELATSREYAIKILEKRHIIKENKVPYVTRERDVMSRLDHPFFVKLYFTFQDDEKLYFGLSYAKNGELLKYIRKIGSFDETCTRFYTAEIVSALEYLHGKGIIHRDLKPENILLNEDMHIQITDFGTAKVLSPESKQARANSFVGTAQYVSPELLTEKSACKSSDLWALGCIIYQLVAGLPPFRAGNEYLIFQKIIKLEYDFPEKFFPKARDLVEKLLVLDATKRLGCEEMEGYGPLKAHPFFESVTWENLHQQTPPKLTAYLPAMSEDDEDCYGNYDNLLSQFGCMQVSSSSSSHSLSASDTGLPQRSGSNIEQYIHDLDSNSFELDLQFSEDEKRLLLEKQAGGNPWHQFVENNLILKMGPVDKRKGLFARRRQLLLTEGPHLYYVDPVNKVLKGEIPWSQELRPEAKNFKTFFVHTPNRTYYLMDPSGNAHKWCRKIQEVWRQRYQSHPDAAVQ

[6] = Efflux ratio of permeability from basolateral to apical side to apical to basolateral side in human Caco2 cells; format: ADME, cell-based; conditions: Caco-2
[7] = Permeability from apical to basolateral side of human Caco2 cells; format: ADME, cell-based; conditions: Caco-2, read-out: permeability

Compound | metabolised at 0.5 h [1] [%] | IC50 [2] [nM] | IC50 ([3]; read-out: IC50) [nM] | metabolised at 40 min [4] [%] | further results
O=C(NCCCNc1nc(Nc2cnn(C3CCC3)c2)ncc1C1CC1)C1CCC1 | 61 | 2 | 220 | 61 | 
CC(C)c1cnc(Nc2cccc(F)c2)nc1NCCCNC(=O)C1CCC1 |  | > 1000 |  |  | 
O=C(NCCCNc1nc(Nc2cccc(Cn3cncn3)c2)ncc1C1CC1)C1CCC1 |  | 3 | 88 | 63 | 
O=C(NCCCNc1nc(Nc2cccc(F)c2)ncc1C1CC1)C1CCC1 | 74 | 8 | 1300 | 80 | IC50 [5]: 580 nM
O=C(NCCCNc1nc(Nc2cncnc2)ncc1C1CC1)C1CCC1 |  | 3200 |  |  | 
O=C(NCCCNc1nc(Nc2cccnc2)ncc1C1CC1)C1CCC1 |  | 13 | > 1000 |  | 
O=C(NCCCNc1nc(Nc2cccc(NC(=O)N3CCCC3)c2)ncc1Br)c1cccs1 |  | 6 |  |  | 
O=C(NCCCNc1nc(Nc2cccc(F)c2)ncc1Br)c1ccc(C(F)(F)F)cc1 |  | 450 |  |  | 
O=C(NCCCNc1nc(Nc2cccc(-c3cnco3)c2)ncc1C1CC1)C1CCC1 | 34 | 11 | 560 | 26 | 
O=C(NCCCNc1nc(NC2CCCCC2)ncc1C1CC1)c1cccs1 |  | > 10000 |  |  | 
O=C(NCCCNc1nc(Nc2ccccc2F)ncc1C1CC1)c1cccs1 |  | 820 |  |  | 
CN1CCN(C(=O)c2ccc(Nc3ncc(C4CC4)c(NCCCNC(=O)C4CCC4)n3)cc2)CC1 |  | 2 |  |  | IC50 ([3]; raw264.7): Not Active
COCCC(=O)NCCCNc1nc(Nc2cccc(F)c2)ncc1Br |  | 60 |  |  | 
O=C(NCCCNc1nc(Nc2cccc(F)c2)ncc1CC1CC1)C1CCC1 |  | > 1000 |  |  | 
O=C(NCCCNc1nc(Nc2cccc(F)c2)ncc1Br)c1cnccn1 |  | 22 |  |  | 
CC(C)N1CCC(n2cc(Nc3ncc(C4CC4)c(NCCCNC(=O)C4CCC4)n3)cn2)CC1 | 42 | 7 | 3000 | 24 | efflux ratio [6]: 16; Papp A→B [7]: 1.4 ×10⁻⁶ cm/s
Cn1ccc(Nc2ncc(C3CC3)c(NCCCNC(=O)C3CCC3)n2)n1 |  | > 1000 |  |  | 
O=C(NCCCNc1nc(Nc2cccc(F)c2)ncc1Br)c1cccs1 |  | 9 |  |  | IC50 [5]: 130 nM
O=C(NCCCNc1nc(Nc2ccc(-n3cncn3)cc2)ncc1C1CC1)C1CCC1 | 35 | 3 | 150 | 23 | efflux ratio [6]: 3; Papp A→B [7]: 10 ×10⁻⁶ cm/s
O=C(NCCCNc1nc(Nc2ccc(N3CCOCC3)nc2)ncc1C1CC1)C1CCC1 | 92 | 15 | 490 | 15 | 
O=C(NCCCNc1nc(Nc2ccc3c(c2)CN(C2CC2)CC3)ncc1C1CC1)C1CCC1 | 86 | 7 | 570 | 91 | 

Compound | metabolised at 0.5 h [1] [%] | IC50 [2] [nM] | IC50 ([3]; read-out: IC50) [nM] | metabolised at 40 min [4] [%] | further results
CN1CCC(c2ccc(Nc3ncc(C4CC4)c(NCCCNC(=O)C4CCC4)n3)cc2)CC1 | 30 | 8 | 660 | 23 | 
O=C(NCCCNc1nc(Nc2cccc(F)c2)ncc1Br)C1CCC1 |  |  |  |  | IC50 [5]: 68 nM
O=C(NCCCNc1nc(Nc2cccc(F)c2)ncc1Br)C1CCCC1 |  | 8 |  |  | IC50 [5]: 220 nM
CC(C)n1cc(Nc2ncc(C3CC3)c(NCCCNC(=O)C3CCC3)n2)cn1 | 41 | 4 | 81 | 61 | 
Cc1nn(C)c2cc(Nc3ncc(C4CC4)c(NCCCNC(=O)C4CCC4)n3)ccc12 | 41 | 7 | 90 | 86 | 
O=C(NCCCNc1nc(Nc2cnn(C3CCOCC3)c2)ncc1C1CC1)C1CCC1 | 33 | 2 | 280 | 25 | 
O=C(NCCCNc1nc(Nc2cccc(N3CCOCC3)c2)ncc1C1CC1)C1CCC1 |  | 28 | 580 |  | 
CC(=O)N1CCC(C(=O)NCCCNc2nc(Nc3cccc(F)c3)ncc2Br)CC1 |  | 430 |  |  | 
O=C(NCCCNc1nc(Nc2cccc(F)c2)ncc1C1CC1)c1cccs1 |  | 110 |  |  | 
CCn1cc(Nc2ncc(C3CC3)c(NCCCNC(=O)C3CCC3)n2)cn1 | 54 | 7 | 140 | 37 | 
CN(C)Cc1ccc(Nc2ncc(C3CC3)c(NCCCNC(=O)C3CCC3)n2)cc1 |  | 6 | 550 |  | efflux ratio [6]: 56; Papp A→B [7]: 1 ×10⁻⁶ cm/s
O=C(CCc1ccccc1)NCCCNc1nc(Nc2cccc(F)c2)ncc1Br |  | 560 |  |  | 
O=C(NCCCNc1nc(NCc2ccc(F)cc2)ncc1C1CC1)c1cccs1 |  | > 10000 |  |  | 
O=C(NCCCNc1nc(Nc2cccc(F)c2)ncc1Br)c1cccc(N2CCOCC2)c1 |  | 3600 |  |  | 
Cn1ncc2cc(Nc3ncc(C4CC4)c(NCCCNC(=O)C4CCC4)n3)ccc21 | 40 | 16 | 380 | 42 | 
CCc1cnc(Nc2cccc(F)c2)nc1NCCCNC(=O)C1CCC1 |  | 63 |  |  | 
O=C(NCCCNc1nc(Nc2cnn(C3CC3)c2)ncc1C1CC1)C1CCC1 | 24 | 10 | 130 | 32 | 
CN1CCC(C(=O)NCCCNc2nc(Nc3cccc(F)c3)ncc2Br)CC1 |  | 4300 |  |  | 
O=C(NCCCNc1nc(Nc2ccc(CN3CCCCC3)nc2)ncc1C1CC1)C1CCC1 |  | 9 | 1200 |  | efflux ratio [6]: 780; Papp A→B [7]: 0.1 ×10⁻⁶ cm/s
O=C(NCCCNc1nc(Nc2cnn(CCN3CCOCC3)c2)ncc1C1CC1)C1CCC1 | 68 | 9 | 9000 | 46 | 
O=C(NCCCNc1nc(Nc2cnn(C3CCCC3)c2)ncc1C1CC1)C1CCC1 | 59 | 4 | 93 | 67 | 

From ChEMBL document CHEMBL2203069, “Synthesis and structure-activity relationships of a novel series of pyrimidines as potent inhibitors of TBK1/IKKε kinases” (Bioorg Med Chem Lett, 2012)
